Several values for one entry are separate records, joined by “and”; a condition that tells them apart may be missing. Equal entries are not always repeated.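 Assay format: 96-well plates, 48-hour exposure. At the GI50, growth is halved. TGI denotes the concentration required for complete inhibition of growth.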
Experiments:
Test in all cases: NCI tumour cell line growth inhibition, 48 h
MDA-MB-435 = tested on: MDA-MB-435
SK-MEL-2 melanoma = tested on: SK-MEL-2 melanoma
HCC-2998 colon = tested on: HCC-2998 colon
SK-MEL-28 melanoma = tested on: SK-MEL-28 melanoma
HT29 colon = tested on: HT29 colon
HL-60(TB) leukemia = tested on: HL-60(TB) leukemia
MOLT-4 leukemia = tested on: MOLT-4 leukemia
SF-539 CNS = tested on: SF-539 CNS
MDA-N = tested on: MDA-N
SK-OV-3 ovarian = tested on: SK-OV-3 ovarian
UO-31 renal = tested on: UO-31 renal

`COc1cc(CNC(=O)CCCCCCCCCCSC#N)ccc1O` was tested, and the TGI (MDA-MB-435) was 24.4 µM, the TGI (SK-MEL-2 melanoma) was 28.8 µM and the TGI (HCC-2998 colon) was > 100 µM. The TGI (SK-MEL-28 melanoma) was 21.1 µM, the TGI (HT29 colon) was 87.2 µM and the TGI (HL-60(TB) leukemia) was 28.9 µM. The TGI (MOLT-4 leukemia) was 31.1 µM, the TGI (SF-539 CNS) was 37.1 µM and the TGI (MDA-N) was 31.3 µM. The TGI (SK-OV-3 ovarian) was 25.8 µM and the TGI (UO-31 renal) was 21.9 µM.
In the case of `O=C(CCCN1CCC(Nc2ccc(F)cc2)(c2nnnn2C2CCCCC2)CC1)c1ccc(F)cc1`, the TGI (MDA-MB-435) was 31.5 µM, the TGI (SK-MEL-2 melanoma) was 40.7 µM and the TGI (HCC-2998 colon) was > 100 µM. The TGI (SK-MEL-28 melanoma) was 30.5 µM, the TGI (HT29 colon) was > 100 µM and the TGI (HL-60(TB) leukemia) was 40.4 µM. The TGI (MOLT-4 leukemia) was > 100 µM, the TGI (SF-539 CNS) was 30.5 µM and the TGI (MDA-N) was 30.7 µM. It also gave a TGI (SK-OV-3 ovarian) of 11.5 µM and a TGI (UO-31 renal) of 28.4 µM.
`CCCCCC(=O)OC[n+]1ccc(-c2c(COC(=O)NC(C)C)c(COC(=O)NC(C)C)c3n2CCC3)cc1` was tested, and the TGI (MDA-MB-435) was > 100 µM, the TGI (SK-MEL-2 melanoma) was > 100 µM and the TGI (HCC-2998 colon) was > 100 µM. For the same molecule, the TGI (SK-MEL-28 melanoma) was > 100 µM, the TGI (HT29 colon) was > 100 µM and the TGI (HL-60(TB) leukemia) was 96.8 µM. The TGI (MOLT-4 leukemia) was > 100 µM, the TGI (SF-539 CNS) was > 100 µM and the TGI (MDA-N) was > 100 µM. For the same molecule, the TGI (SK-OV-3 ovarian) was > 100 µM and the TGI (UO-31 renal) was > 100 µM.
`COC(=O)/C=C/c1cc(OC)c2c(c1)C(C(=O)OC)C(c1ccc(O)c(OC)c1)O2` (stereo not drawn) was tested, and the GI50 (MDA-MB-435) was 1130 nM and 259 nM, the TGI (MDA-MB-435) was 4.49 µM and 1.32 µM and the GI50 (SK-MEL-2 melanoma) was 3.16 µM and 3.87 µM and 9.94 µM. The TGI (SK-MEL-2 melanoma) was > 82.2 µM, the GI50 (HCC-2998 colon) was 24.5 µM and 10.6 µM and 5.69 µM and the TGI (HCC-2998 colon) was 48.4 µM and 25.6 µM and 21 µM. For the same molecule, the GI50 (SK-MEL-28 melanoma) was > 56.3 µM and 18.9 µM and 9.69 µM, the TGI (SK-MEL-28 melanoma) was > 100 µM and > 70.4 µM and 86.7 µM and the GI50 (HT29 colon) was 16 µM and 9.17 µM and 3.77 µM. For the same molecule, the TGI (HT29 colon) was 37.8 µM and 26.8 µM and 14.4 µM, the GI50 (HL-60(TB) leukemia) was 1140 nM and 1810 nM and 325 nM and the GI50 (MOLT-4 leukemia) was 5.39 µM and 4.7 µM and 1.94 µM. For the same molecule, the TGI (MOLT-4 leukemia) was > 100 µM and 16.7 µM, the TGI (SF-539 CNS) was 9.24 µM and 8.25 µM and 10.4 µM and the GI50 (MDA-N) was 204 nM. The TGI (MDA-N) was 29.1 µM, the TGI (SK-OV-3 ovarian) was > 100 µM and the TGI (UO-31 renal) was > 43.7 µM and 45.1 µM and 77.2 µM.
With `N#C[C@H](c1nc2ccccc2[nH]1)c1nc2ccccc2nc1Cl` the TGI (MDA-MB-435) was > 78 µM, the TGI (SK-MEL-2 melanoma) was > 59.1 µM and the TGI (HCC-2998 colon) was > 60.9 µM. The TGI (SK-MEL-28 melanoma) was 49 µM, the TGI (HT29 colon) was > 52.2 µM and the TGI (HL-60(TB) leukemia) was 3.12 µM. The TGI (MOLT-4 leukemia) was 16.8 µM, the TGI (SF-539 CNS) was > 100 µM and the TGI (MDA-N) was > 62.9 µM. For the same molecule, the TGI (SK-OV-3 ovarian) was > 100 µM and the TGI (UO-31 renal) was > 76.7 µM.
`O=[N+]([O-])C(=C(\Cl)NCCO)/C(Cl)=C(/Cl)Br` gave a TGI (MDA-MB-435) of 2.67 µM, a TGI (SK-MEL-2 melanoma) of 4.14 µM and a TGI (HCC-2998 colon) of 11.1 µM. For the same molecule, the TGI (SK-MEL-28 melanoma) was 5.51 µM, the TGI (HT29 colon) was 3.67 µM and the TGI (HL-60(TB) leukemia) was 2.48 µM. It also gave a TGI (MOLT-4 leukemia) of 2.93 µM, a TGI (SF-539 CNS) of 6.15 µM and a TGI (MDA-N) of 3.97 µM. The TGI (SK-OV-3 ovarian) was 28.5 µM and the TGI (UO-31 renal) was 10.6 µM.
With `CCOC(=O)C1=CN(Cc2ccccc2)C2ON=C(c3ccc(Cl)cc3)C2C1` (stereo not drawn) the TGI (MDA-MB-435) was > 79.5 µM, the TGI (SK-MEL-2 melanoma) was 38.6 µM and the TGI (HCC-2998 colon) was > 100 µM. For the same molecule, the TGI (SK-MEL-28 melanoma) was > 71.8 µM, the TGI (HT29 colon) was > 71.4 µM and the TGI (HL-60(TB) leukemia) was > 47.1 µM. For the same molecule, the TGI (MOLT-4 leukemia) was > 100 µM, the TGI (SF-539 CNS) was > 68.2 µM and the TGI (MDA-N) was > 68.9 µM. For the same molecule, the TGI (SK-OV-3 ovarian) was > 85.9 µM and the TGI (UO-31 renal) was 52.5 µM.
`COc1ccc(/C=C/C(=O)N[C@@H]2C(=O)N3[C@@H]2SC(C)(C)[C@@H]3C(=O)O)cc1OC` was tested, and the TGI (MDA-MB-435) was > 100 µM, the TGI (SK-MEL-2 melanoma) was > 100 µM and the TGI (HCC-2998 colon) was > 100 µM. The TGI (SK-MEL-28 melanoma) was > 100 µM, the TGI (HT29 colon) was > 100 µM and the TGI (HL-60(TB) leukemia) was > 100 µM. The TGI (MOLT-4 leukemia) was > 100 µM, the TGI (SF-539 CNS) was > 100 µM and the TGI (MDA-N) was > 100 µM. For the same molecule, the TGI (SK-OV-3 ovarian) was > 100 µM and the TGI (UO-31 renal) was > 100 µM.
`C=CCOC1=C(OC(C)=O)C(C2COC(C)(C)O2)OC1=O` (stereo not drawn) was tested, and the TGI (MDA-MB-435) was 46.2 µM, the TGI (SK-MEL-2 melanoma) was > 100 µM and the TGI (HCC-2998 colon) was > 100 µM. For the same molecule, the TGI (SK-MEL-28 melanoma) was 46.7 µM, the TGI (HT29 colon) was 38.4 µM and the TGI (HL-60(TB) leukemia) was 40.3 µM. For the same molecule, the TGI (MOLT-4 leukemia) was 43.8 µM, the TGI (SF-539 CNS) was > 100 µM and the TGI (MDA-N) was > 100 µM. For the same molecule, the TGI (SK-OV-3 ovarian) was > 100 µM and the TGI (UO-31 renal) was 33 µM.
`FC(F)(F)c1ccc(N=NN2CCCC2)cc1` was tested, and the TGI (MDA-MB-435) was > 100 µM, the TGI (SK-MEL-2 melanoma) was > 100 µM and the TGI (HCC-2998 colon) was > 100 µM. The TGI (SK-MEL-28 melanoma) was > 100 µM, the TGI (HT29 colon) was > 100 µM and the TGI (HL-60(TB) leukemia) was > 100 µM. The TGI (MOLT-4 leukemia) was > 100 µM, the TGI (SF-539 CNS) was > 100 µM and the TGI (MDA-N) was > 100 µM. The TGI (SK-OV-3 ovarian) was > 100 µM and the TGI (UO-31 renal) was > 100 µM.
For `O=C(O)COc1cccc2ccccc(=O)c12`, the TGI (MDA-MB-435) was > 100 µM, the TGI (SK-MEL-2 melanoma) was > 100 µM and the TGI (HCC-2998 colon) was > 100 µM. The TGI (SK-MEL-28 melanoma) was > 100 µM, the TGI (HT29 colon) was > 100 µM and the TGI (HL-60(TB) leukemia) was > 100 µM. For the same molecule, the TGI (MOLT-4 leukemia) was > 100 µM, the TGI (SF-539 CNS) was > 100 µM and the TGI (MDA-N) was > 100 µM. The TGI (SK-OV-3 ovarian) was > 100 µM and the TGI (UO-31 renal) was > 100 µM.
In the case of `CCOC(=O)CCNC(=O)c1cc(C)cc2c1Oc1c(cc(C)cc1C(=O)NCCC(=O)OCC)S2`, the TGI (MDA-MB-435) was > 100 µM, the TGI (SK-MEL-2 melanoma) was > 100 µM and the TGI (HCC-2998 colon) was > 100 µM. The TGI (SK-MEL-28 melanoma) was > 100 µM, the TGI (HT29 colon) was > 100 µM and the TGI (HL-60(TB) leukemia) was > 100 µM. The TGI (MOLT-4 leukemia) was > 100 µM, the TGI (SF-539 CNS) was > 100 µM and the TGI (MDA-N) was > 100 µM. The TGI (SK-OV-3 ovarian) was > 100 µM and the TGI (UO-31 renal) was > 100 µM.
`CC(C)(C)OC(=O)/C=C/[C@@H](CCC(=O)/C=C/[C@H](/C=C\CCCC(=O)O)NC1(c2ccccc2)c2ccccc2-c2ccccc21)O[Si](C)(C)C(C)(C)C` showed a TGI (MDA-MB-435) of 48.7 µM, a TGI (SK-MEL-2 melanoma) of 30.1 µM and a TGI (HCC-2998 colon) of 32.5 µM. It also gave a TGI (SK-MEL-28 melanoma) of 69.6 µM, a TGI (HT29 colon) of 30.1 µM and a TGI (HL-60(TB) leukemia) of 86.1 µM. The TGI (MOLT-4 leukemia) was > 100 µM, the TGI (SF-539 CNS) was 36.6 µM and the TGI (MDA-N) was 47.2 µM. For the same molecule, the TGI (SK-OV-3 ovarian) was > 100 µM and the TGI (UO-31 renal) was 29.8 µM.
For `CSc1c(C#N)c(=O)n(N)c2n[nH]c(C)c12`, the TGI (MDA-MB-435) was > 100 µM, the TGI (SK-MEL-2 melanoma) was > 100 µM and the TGI (HCC-2998 colon) was > 100 µM. For the same molecule, the TGI (SK-MEL-28 melanoma) was > 100 µM, the TGI (HT29 colon) was > 100 µM and the TGI (HL-60(TB) leukemia) was > 100 µM. For the same molecule, the TGI (MOLT-4 leukemia) was > 100 µM, the TGI (SF-539 CNS) was > 100 µM and the TGI (MDA-N) was > 100 µM. For the same molecule, the TGI (SK-OV-3 ovarian) was > 100 µM and the TGI (UO-31 renal) was > 100 µM.
With `CN(C)C=Nc1cccc2c1NSN2` the TGI (MDA-MB-435) was > 100 µM, the TGI (SK-MEL-2 melanoma) was > 100 µM and the TGI (HCC-2998 colon) was > 100 µM. For the same molecule, the TGI (SK-MEL-28 melanoma) was > 100 µM, the TGI (HT29 colon) was > 100 µM and the TGI (HL-60(TB) leukemia) was > 100 µM. The TGI (MOLT-4 leukemia) was > 100 µM, the TGI (SF-539 CNS) was > 100 µM and the TGI (MDA-N) was > 100 µM. For the same molecule, the TGI (SK-OV-3 ovarian) was > 100 µM and the TGI (UO-31 renal) was > 100 µM.
`CCN(CC)CCCNc1c2cc(OC)ccc2nc2cccc([N+](=O)[O-])c12` showed a TGI (MDA-MB-435) of 0.229 µM, a TGI (SK-MEL-2 melanoma) of 0.32 µM and a TGI (HCC-2998 colon) of 0.192 µM. The TGI (SK-MEL-28 melanoma) was 0.534 µM, the TGI (HT29 colon) was 0.453 µM and the TGI (HL-60(TB) leukemia) was 0.511 µM. For the same molecule, the TGI (MOLT-4 leukemia) was 0.554 µM, the TGI (SF-539 CNS) was 0.304 µM and the TGI (MDA-N) was 0.277 µM. The TGI (SK-OV-3 ovarian) was 0.789 µM and the TGI (UO-31 renal) was 0.174 µM.

Source: PubChem BioAssay (NCI)
